Assays:
[1] = test system: human colorectal cancer cell line, COLO-320DM; test: Cell proliferation inhibitory activity test (Celltiter-Glo Luminescent Cell Viability Assay); assay type: cell-based; details: COLO-320DM cells, 96 hours, class symbols, read-out: COLO-320 DM (cell proliferation inhibitory activity, GI50 value)
Procedure, shortened: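 GI50 is taken as the concentration halving cell growth versus 1% DMSO control, measured by ATP luminescence. Compound exposure lasted 96 h at 37° C. under 5% CO2, after overnight seeding in RPMI-1640 with 10% FBS and 2 mM glutamine.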

tankyrase 1 (TNKS 1) = target: T1, tankyrase 1 (TNKS 1) (Homo sapiens, UniProt O95271); test: Tankyrase inhibitory activity test (ELISA, self-polyADP ribosylation), tankyrase 1; assay type: biochemical; details: ELISA, self-polyADP ribosylation; class symbols; read-out: TNKS1 (inhibitory activity against tankyrase 1, IC50 value)
T1 construct: 1,024-1,327aa; made in house; host or cells: cell-free protein synthesis system
T1 sequence (O95271 1024-1327): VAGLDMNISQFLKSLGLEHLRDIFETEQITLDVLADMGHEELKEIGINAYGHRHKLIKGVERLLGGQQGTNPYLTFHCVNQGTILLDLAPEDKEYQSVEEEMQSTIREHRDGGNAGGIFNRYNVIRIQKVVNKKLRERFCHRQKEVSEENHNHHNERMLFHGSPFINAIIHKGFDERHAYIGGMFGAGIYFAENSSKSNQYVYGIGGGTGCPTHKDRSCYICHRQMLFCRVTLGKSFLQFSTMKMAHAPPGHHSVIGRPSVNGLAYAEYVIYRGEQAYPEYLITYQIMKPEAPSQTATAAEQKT
Procedure, shortened: (§1)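 IC50 was fitted to residual self-polyADP-ribosylation activity, detected by HRP-streptavidin chemiluminescence. Plate-bound Flag fusions (TNKS1 1,024-1,327aa SAM+PARP; TNKS2 613-1,116aa ANK5+SAM+PARP, cell-free synthesized) saw compound for 10 min at room temperature in 50 mM Tris-HCl pH 8.0, 4 mM MgCl2, 0.2 mM DTT. Reaction with 225 μM NAD/25 μM 6-biotin-17-NAD solution ran 45 min at 30 °C.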

tankyrase 2 (TNKS 2) = target: T2, tankyrase 2 (TNKS 2) (Homo sapiens, UniProt Q9H2K2); test: Tankyrase inhibitory activity test (ELISA, self-polyADP ribosylation), tankyrase 2; assay type: biochemical; details: ELISA, self-polyADP ribosylation; class symbols; read-out: TNKS2 (inhibitory activity against tankyrase 2, IC50 value)
T2 construct: 613-1, 116aa; made in house; host or cells: cell-free protein synthesis system
T2 sequence (Q9H2K2 613-1166): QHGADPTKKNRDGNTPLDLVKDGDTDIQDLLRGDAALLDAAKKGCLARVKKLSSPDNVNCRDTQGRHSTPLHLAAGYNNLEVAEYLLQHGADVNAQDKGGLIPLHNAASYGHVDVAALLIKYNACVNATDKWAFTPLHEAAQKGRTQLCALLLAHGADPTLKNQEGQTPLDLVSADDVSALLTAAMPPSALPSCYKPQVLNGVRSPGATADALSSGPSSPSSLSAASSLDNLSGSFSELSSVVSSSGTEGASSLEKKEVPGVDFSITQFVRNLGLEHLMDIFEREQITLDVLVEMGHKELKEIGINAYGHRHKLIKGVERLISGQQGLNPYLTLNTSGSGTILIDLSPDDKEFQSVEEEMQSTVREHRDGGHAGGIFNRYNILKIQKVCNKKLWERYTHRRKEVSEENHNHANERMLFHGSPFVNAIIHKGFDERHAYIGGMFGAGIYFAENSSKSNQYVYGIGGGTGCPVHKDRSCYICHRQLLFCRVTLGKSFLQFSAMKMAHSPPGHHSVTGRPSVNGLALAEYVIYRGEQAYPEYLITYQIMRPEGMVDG
Procedure, shortened: as §1

COc1ccc(Cl)c2c1N(CCC(=O)N1CCn3c(C(F)(F)F)cnc3C1)C(=O)C21CCN(c2nc3c(c(=O)[nH]2)CCCN3C)CC1 [Example 445, 4-chloro-1′-(4-hy-droxy-8-methyl-6,7-dihdyro-5H-py-rido[2,3-d]pyrimi-din-2-yl)-7-meth-oxy-1-[3-oxo-3-[3-(trifluoromethyl)-6,8-dihydro-5H-imidazo[1,2-a]py-razin-7-yl]propyl] spiro[indole-3,4′-piperidine]-2-one]
GI50 [1]: 100 to 600 nM
IC50 (tankyrase 1 (TNKS 1)): < 20 nM
IC50 (tankyrase 2 (TNKS 2)): < 20 nM

COc1ccc(Cl)c2c1N(CC(C)(C)O)C(=O)C21CCN(c2nc3c(c(=O)[nH]2)CCCN3C)CC1 [Example 446, 4-chloro-1′-(4-hy-droxy-8-methyl-6,7-dihydro-5H-py-rido[2,3-d]pyrimi-din-2-yl)-1-(2-hy-droxy-2-methyl-propyl)-7-methoxy-spiro[indole-3,4′-piperidine]-2-one]
GI50 [1]: < 100 nM
IC50 (tankyrase 1 (TNKS 1)): < 20 nM
IC50 (tankyrase 2 (TNKS 2)): < 20 nM

CN1CCCc2c1nc(N1CCC3(CC1)C(=O)N(CC(C)(C)O)c1cccc(F)c13)[nH]c2=O [Example 447, 4-fluoro-1′-(4-hy-droxy-8-methyl-6,7-dihydro-5H-py-rido[2,3-d]pyrimidin-2-yl)-1-(2-hydroxy-2-methylpro-pyl)spiro[indole-3,4′-piperidine]-2-one]
GI50 [1]: < 100 nM
IC50 (tankyrase 1 (TNKS 1)): < 20 nM
IC50 (tankyrase 2 (TNKS 2)): < 20 nM

COc1ccc(Cl)c2c1N(CC(C)(C)O)C(=O)C21CCN(c2nc3c(c(=O)[nH]2)CCCN3)CC1 [Example 448]
GI50 [1]: 100 to 600 nM
IC50 (tankyrase 1 (TNKS 1)): < 20 nM
IC50 (tankyrase 2 (TNKS 2)): < 20 nM

CN(C)c1ccc(-c2cc(F)c3c(c2)C(=O)OC32CCN(c3nc4c(c(=O)[nH]3)CCCN4C)CC2)cc1 [Example 449, 6-[4-(dimethylami-no)phenyl]-4-fluoro-1′-(4-hydroxy-8-methyl-6,7-di-hydro-5H-pyrido[2,3-d]pyrimidin-2-yl)spiro[2-benzo-furan-3,4′-piperidine]-1-one]
GI50 [1]: 100 to 600 nM
IC50 (tankyrase 1 (TNKS 1)): 20 to 200 nM
IC50 (tankyrase 2 (TNKS 2)): 20 to 200 nM

CN1CCCc2c1nc(N1CCC3(CC1)OC(=O)c1cc(-c4cnn(C)c4)cc(F)c13)[nH]c2=O [Example 450, 4-fluoro-1′-(4-hy-droxy-8-methyl-6,7-dihydro-5H-py-rido[2,3-d]pyrimidin-2-yl)-6-(1-meth-ylpyrazol-4-yl)spiro [2-benzofuran-3,4′-piperidine]-1-one]
GI50 [1]: < 100 nM
IC50 (tankyrase 1 (TNKS 1)): < 20 nM
IC50 (tankyrase 2 (TNKS 2)): < 20 nM

O=C1N(CC(F)(F)F)c2cccc(F)c2C12CCN(c1nc3c(c(=O)[nH]1)CCCN3)CC2 [Example 451, 4-fluoro-1′-(4-hy-droxy-5,6,7,8-tetra-hydropyrido[2,3-d]pyrimidin-2-yl)-1-(2,2,2-trifluoro-ethyl)spiro[indole-3,4′-piperidine]-2-one]
GI50 [1]: 100 to 600 nM
IC50 (tankyrase 1 (TNKS 1)): < 20 nM
IC50 (tankyrase 2 (TNKS 2)): < 20 nM

CC(C)(O)CN1C(=O)C2(CCN(c3nc4c(c(=O)[nH]3)CCCN4)CC2)c2c(F)cccc21 [Example 452, 4-fluoro-1-(2-hy-droxy-2-methyl-propyl)-1′-(4-hydroxy-5,6,7,8-tetra-hydropyrido[2,3-d]pyrimidin-2-yl)spiro [indole-3,4′-piper-idine]-2-one]
GI50 [1]: 100 to 600 nM
IC50 (tankyrase 1 (TNKS 1)): 20 to 200 nM
IC50 (tankyrase 2 (TNKS 2)): < 20 nM

CNS(=O)(=O)COc1cc(F)c2c(c1)N(C)C(=O)C21CCN(c2nc3c(c(=O)[nH]2)CCCN3C)CC1 [Example 453, 1-{[4-fluoro-1-meth-yl-1′-(8-methyl-4-oxo-3,4,5,6,7,8-hexahydropyrido [2,3-d]pyrimidin-2-yl)-2-oxospiro [indole-3,4′-piperi-dine]-6-yl]oxy}-N-methylmethane sulfonamide]
GI50 [1]: 100 to 600 nM
IC50 (tankyrase 1 (TNKS 1)): < 20 nM
IC50 (tankyrase 2 (TNKS 2)): < 20 nM

CN1CCCc2c1nc(N1CCC3(CC1)C(=O)N(C)c1cc(OCS(N)(=O)=O)cc(F)c13)[nH]c2=O [Example 454, 1-{[4-fluoro-1-meth-yl-1′-(8-methyl-4-oxo-3,4,5,6,7,8-hexahydropyrido [2,3-d]pyrimidin-2-yl)-2-oxospiro[indole-3,4′-piperidine]-6-yl]oxy}meth-anesulfonamide]
GI50 [1]: 100 to 600 nM
IC50 (tankyrase 1 (TNKS 1)): < 20 nM
IC50 (tankyrase 2 (TNKS 2)): < 20 nM

CN1CCCc2c1nc(N1CCC3(CC1)C(=O)N(C)c1cc(N4CCS(=O)(=O)CC4)cc(F)c13)[nH]c2=O [Example 455, 6-(1,1-dioxdothio-morpholino)-4-fluoro-1-methyl-1′-(8-methyl-4-oxo-3,4,5,6,7,8-hexa-hydropyrido[2,3-d]pyrimidin-2-yl)spiro [indole-3,4′-piperi-dine]-2-one]
GI50 [1]: 100 to 600 nM
IC50 (tankyrase 1 (TNKS 1)): < 20 nM
IC50 (tankyrase 2 (TNKS 2)): < 20 nM

CC(=O)NS(=O)(=O)COc1cc(F)c2c(c1)N(C)C(=O)C21CCN(c2nc3c(c(=O)[nH]2)CCCN3C)CC1 [Example 456, N-[[4-fluoro-1-meth-yl-1′-(8-methyl-4-oxo-3,4,5,6,7,8-hexahydropyrido [2,3-d]pyrimidin-2-yl)-2-oxospiro [indole-3,4′-piperi-dine]-6-yl]oxymeth-ylsulfonyl]aceta-mide]
GI50 [1]: 100 to 600 nM
IC50 (tankyrase 1 (TNKS 1)): < 20 nM
IC50 (tankyrase 2 (TNKS 2)): < 20 nM

CN1CCCc2c1nc(N1CCC3(CC1)C(=O)N(C)c1cc(N4CCNCC4)cc(F)c13)[nH]c2=O [Example 457, 4-fluoro-1-methyl-1′-(8-methyl-4-oxo-3,4,5,6,7,8-hexahydropyrido [2,3-d]pyrimidin-2-yl)-6-piperazin-1-yl-spiro[indole-3,4′-piperidine]-2(1H)-one]
GI50 [1]: 600 to 1000 nM
IC50 (tankyrase 1 (TNKS 1)): 20 to 200 nM
IC50 (tankyrase 2 (TNKS 2)): 20 to 200 nM

CN1CCCc2c1nc(N1CCC3(CC1)C(=O)N(C)c1cc(N4CCN(S(=O)(=O)N(C)C)CC4)cc(F)c13)[nH]c2=O [Example 458, 4-[4-fluoro-1-meth-yl-1′-(8-methyl-4-oxo-3,4,5,6,7,8-hexahydropyrido [2,3-d]pyrimidin-2-yl)-2-oxospiro [indole-3,4′-piperi-dine]-6-yl]-N,N-di-methylpiperazine-1-sulfonamide]
GI50 [1]: 100 to 600 nM
IC50 (tankyrase 1 (TNKS 1)): 20 to 200 nM
IC50 (tankyrase 2 (TNKS 2)): < 20 nM

CN1CCCc2c1nc(N1CCC3(CC1)C(=O)N(C)c1cc(N4CC(=O)N(Cc5ccccc5)C(=O)C4)cc(F)c13)[nH]c2=O [Example 459, 1-benzyl-4-[4-fluoro-1-methyl-1′-(8-methyl-4-oxo-3,4,5,6,7,8-hexa-hydropyrido[2,3-d]pyrimidin-2-yl)-2-oxospiro[indole-3,4′-piperidine]-6-yl]piperazine-2,6-dione]
GI50 [1]: 100 to 600 nM
IC50 (tankyrase 1 (TNKS 1)): 20 to 200 nM
IC50 (tankyrase 2 (TNKS 2)): 20 to 200 nM

CN1CCCc2c1nc(N1CCC3(CC1)C(=O)N(C)c1cc(N4CCN(C(=O)CO)CC4)cc(F)c13)[nH]c2=O [Example 460, 4-fluoro-6-[4-(2-hydroxyacetyl)piperazin-1-yl]-1-meth-yl-1′-(8-methyl-4-oxo-3,4,5,6,7,8-hexahydropyrido [2,3-d]pyrimidin-2-yl)spiro[indole-3,4′-piperidine]-2-one]
GI50 [1]: 100 to 600 nM
IC50 (tankyrase 1 (TNKS 1)): < 20 nM
IC50 (tankyrase 2 (TNKS 2)): < 20 nM

CN1CCCc2c1nc(N1CCC3(CC1)C(=O)N(C)c1cc(N4CCN(S(C)(=O)=O)CC4)cc(F)c13)[nH]c2=O [Example 461, 4-fluoro-1-methyl-1′-(8-methyl-4-oxo-3,4,5,6,7,8-hexahydropyrido[2,3-d]pyrimidin-2-yl)-6-(4-methylsulfonylpiperazin-1-yl)spiro[indole-3,4′-piperidine]-2(1H)-one]
GI50 [1]: < 100 nM
IC50 (tankyrase 1 (TNKS 1)): < 20 nM
IC50 (tankyrase 2 (TNKS 2)): < 20 nM

COC(=O)N1CCN(c2cc(F)c3c(c2)N(C)C(=O)C32CCN(c3nc4c(c(=O)[nH]3)CCCN4C)CC2)CC1 [Example 462, methyl 4-[4-fluoro-1-methyl-1′-(8-methyl-4-oxo-3,4,5,6,7,8-hexahydropyrido[2,3-d]pyrimidin-2-yl)-2-oxospiro[indole-3,4′-piperidine]-6-yl]piperazine-1-carboxylate]
GI50 [1]: < 100 nM
IC50 (tankyrase 1 (TNKS 1)): 20 to 200 nM
IC50 (tankyrase 2 (TNKS 2)): < 20 nM

C[C@@H]1CN(c2cc(F)c3c(c2)N(C)C(=O)C32CCN(c3nc4c(c(=O)[nH]3)CCCN4C)CC2)C[C@H](C)O1 [Example 463, 6-[cis-2,6-dimethylmorpholin-4-yl]-4-fluoro-1′-(8-methyl-4-oxo-3,4,5,6,7,8-hexahydropyrido[2,3-d]pyrimidin-2-yl)-1-methyl-spiro[indole-3,4′-piperidine]-2(1H)-one]
GI50 [1]: < 100 nM
IC50 (tankyrase 1 (TNKS 1)): < 20 nM
IC50 (tankyrase 2 (TNKS 2)): < 20 nM

CN1CCCc2c1nc(N1CCC3(CC1)C(=O)N(C)c1cc(N4CCC(S(C)(=O)=O)CC4)cc(F)c13)[nH]c2=O [Example 464, 4-fluoro-1-methyl-1′-(8-methyl-4-oxo-3,4,5,6,7,8-hexahydropyrido[2,3-d]pyrimidin-2-yl)l-6-(4-methylsulfonylpiperidin-1-yl)spiro[indole-3,4′-piperidine]-2(1H)-one]
GI50 [1]: 100 to 600 nM
IC50 (tankyrase 1 (TNKS 1)): < 20 nM
IC50 (tankyrase 2 (TNKS 2)): < 20 nM

COC1CCN(c2cc(F)c3c(c2)N(C)C(=O)C32CCN(c3nc4c(c(=O)[nH]3)CCCN4C)CC2)CC1 [Example 465, 4-fluoro-6-(4-methoxypiperidin-1-yl)-1-methyl-1′-(8-methyl-4-oxo-3,4,5,6,7,8-hexahydropyrido[2,3-d]pyrimidin-2-yl)spiro[indole-3,4′-piperidine]-2(1H)-one]
GI50 [1]: < 100 nM
IC50 (tankyrase 1 (TNKS 1)): 20 to 200 nM
IC50 (tankyrase 2 (TNKS 2)): < 20 nM
